Experimental findings from US9809521B2, “Cannabidinoid derivatives” (priority 2011, dated 2017) are described below.

The target in one test is CB2 receptors (Homo sapiens, UniProt P34972). Briefly: Selectivity screen for CB2 receptors. The format is binding.
Test [1] in a line: Tetrad assay (psychoactive properties of cannabinoids). Particulars: in vivo.
A further test relates to Id-2. Briefly: Western analysis of Id-2 expression in breast cancer cells. The format is cell-based, human. Particulars: 1.0 μM, three days.
Test [2] deals with Id-1. The experiment in a line: Quantitative Western analysis of Id-1 expression in 4T1 cells. The format is cell-based, mouse. Conditions: 1.0 μM, two days.
Description: To examine whether CBD or O-1663 CBD analog would inhibit Id-1 protein expression in cells proposed for the in-vivo metastic cancer model, quantitative Western analysis was performed with 4T1 cells. 4T1 cells were treated with 1.0 μM of cannabinoid for two days and then analyzed for Id-1 protein expression.
Test [3] concerns U251 GBM cells. Briefly: Intracranial U251 GBM xenograft in nu/nu mice. The class given is in vivo, mouse. The method, then: (§1) Effects of CBD on GBM cell invasion in In Vivo Studies. To determine whether CBD could inhibit GBM cell invasion through intact brain tissue, an organotypic brain slice assay was utilized. GFP-labeled U251 cells were treated for two days in culture with vehicle or CBD. On the third day, the cells were harvested and transferred to the top of a 0.5 mm coronal rat brain slice obtain from a postnatal day 3 rat pup. A porous cell culture insert containing the slice was suspended for three days in a well containing conditioned media with either vehicle or 1 μM CBD. […] GBM tumors were generated in nu/nu mice by intracranial injection of U251 GBM cells. […] CBD produced a robust reduction of GBM progression, decreasing the tumor area by 95% (FIG. 14, panels B and C). […] This occurred concomitantly with a decrease in tumor cell proliferation (the number of Ki67-positive nuclei was decreased by 87%±9 (p<0.0001, Student's t-test)) (FIG. 14, panel D).

For test [4], the system named is U251 cells. The experiment in a line: Organotypic brain slice invasion assay. The class given is cell-based, human. Particulars: 1 μM. The method, then: as §1
Test [5] has as its system U251 cells. The experiment in a line: Boyden chamber invasion assay. The format is cell-based, human. From the text: Boyden chamber U251 cell invasion studies with CBD and/or Δ^9-THC. In addition to uncontrolled cell growth, a hallmark phenotype of aggressive GBM tumor cells is their ability to migrate away for the primary tumor of origin and invade into neighboring CNS tissue.

Test [6] concerns Id-1. Briefly: Quantitative Western analysis of Id-1 expression in different types of cancer cells. The format is cell-based. The method, then:
Quantitative Western analysis of Id-1 expression in different types of cancer cells with or without CBD treatment. Quantitative Western analysis was performed to examine whether CBD would downregulate Id-1 protein expression in cell lines for breast, prostate, salivary gland, head and neck, and glioblastoma cell lines. […] For the salivary gland cancer cell line, ACCM, a higher concentration of CBD (2.5 μM) was required to see a significant downregulation in Id-1 expression (FIG. 13, panel C (left)).

Another test concerns 4T1 cells. Briefly: In-vivo primary tumor proliferation (4T1 mammary fat pad, flank of Nude mice). On the set-up: species or system mouse. Particulars: daily treatment from one week post injection. The method, then:
In-vivo studies of breast and brain tumor formation with CBD. The compounds of the disclosure were effective in inhibiting tumor formation in an in-vivo model. Breast cancer 4T1 cells were subcutaneously injected into the mammary fat pad of BALBc mice (FIG. 8, Panel A), or into the flank of Nude mice (FIG. 8, Panel B). After one week post injection, the mice were treated daily (systemic in A, and peritumoral in B) with CBD […]. Primary tumor volume was then calculated by measuring the perpendicular largest diameters of the tumor with a caliper and using the formula (L×W^2/2).

The test system of another test is 4T1 breast cancer cells. The experiment in a line: Viability assay, combination with Paclitaxel. The class given is cell-based, mouse. The method, then: (§2) Viability Assays using drug combinations and statistical analysis: Multiple viability assays in a 96 well format were run for each compound and the average percent inhibition of cell viability was calculated and transformed to fraction affected (Fa) i.e., percent inhibitory effect. Additional CI values and a dose reduction index (DRI) were also calculated using Compusyn software. After determining the (IC50/Fa0.5) values of the drugs individually, components were then combined at the following concentration ranges: controls, 0.125×IC50, 0.25×IC50, 0.5×IC50 and a combination index was calculated where CI<1, =1, and >1 indicate synergism, additive effect, and antagonism, respectively.
Cell viability studies with 4T1 breast cancer cells using CBD in combination with Paclitaxel. […] The concentration response curves were first generated for Paclitaxel (PAC), CBD alone, and a combination of CBD and Paclitaxel (FIG. 11, panel A). The inhibitory values from the concentration response curves were then used to calculate combination index (CI) values at multiple combination ratios (FIG. 11, panel B). From which, the data was also used to calculate i) IC50 values, the slope of the curve (m) and a goodness of fit value (r).

The subject of test [7] is U251 GBM cells. Briefly: Viability assay, combination with Temozolomide. The class given is cell-based, human. The method, then: as §2
Cell viability studies with U251 GBM cells using CBD in combination with Temozolomide. […] The concentration response curves were first generated for temozolomide, CBD alone, and a combination of CBD and temozolomide (FIG. 16, panel A). The inhibitory values from the concentration response curves were then used to calculate combination index (CI) values at multiple combination ratios (FIG. 16, panel B). From which, the data was also used to calculate (i) IC50 values, the slope of the curve (m) and a goodness of fit value (r).

In test [8] the test system is U251 cells. The experiment in a line: Cell cycle analysis (PI staining, FACS). The class given is cell-based, human. Particulars: THC 1.7 μM, CBD 0.4 μM. As for the experimental part: Cell cycle analysis: U251 cells were grown in Petri dishes (100 mm×15 mm) and received drug treatments for 2 days. On the third day, the cells were harvested and centrifuged at 1200 rpm for 5 minutes. The pellet was washed 1× with PBS+1% BSA, and centrifuged again. The pellet was re-suspended in 0.5 ml of 2% paraformaldehyde (diluted with PBS) and left to fix overnight at room temperature. The next day the cells were pelleted and re-suspended in 0.5 ml 0.3% Triton in PBS and incubated for 5 minutes at room temperature. The cells were then washed 2 times with PBS+1% BSA. The cells were finally suspended in PBS (0.1% BSA) with 10 ug/ml Propidium Iodide and 100 μg/ml RNAse. The cells were incubated for 30 minutes at room temperature before being stored at 4° C. Cell cycle was measured using a FACS Calibur using Cell Quest Pro and Modfit software.
Apoptosis Studies using U251 cells with Δ^9-THC and/or CBD. […] Therefore, U251 cells were treated with THC and CBD alone or with the combination of the two, and cell cycle was analyzed using cell flow cytometery (FIG. 20). […] Additionally, there was an increase in the population of cells in the G2/M phase. These changes in G1, S and G2/M phase are hallmarks of cell cycle arrest.
Albeit, the magnitude of these effects was reduced compared to those observed with the combination treatment.

The test system of another test is pERK, JNK, p38 MAPK. Briefly: Western analysis of MAPK activity in U251 cells.

Sequence of CB2 receptors (P34972 whole entry): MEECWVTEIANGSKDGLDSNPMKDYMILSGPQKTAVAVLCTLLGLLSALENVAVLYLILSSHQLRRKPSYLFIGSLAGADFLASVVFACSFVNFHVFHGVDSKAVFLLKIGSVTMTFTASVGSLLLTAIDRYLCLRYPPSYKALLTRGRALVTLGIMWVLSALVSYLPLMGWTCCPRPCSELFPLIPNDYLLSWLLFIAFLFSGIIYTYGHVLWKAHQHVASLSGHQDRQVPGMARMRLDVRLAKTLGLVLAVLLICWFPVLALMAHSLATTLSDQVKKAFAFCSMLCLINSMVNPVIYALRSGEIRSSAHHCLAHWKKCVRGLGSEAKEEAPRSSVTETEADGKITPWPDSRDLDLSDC

As to `CCCCC(C)(C)c1cc(O)c(C2CCC(C3CCCCC3)CC2)c(O)c1` (stereo not drawn) [Compound O-1663], the “selectivity CB2 receptors over CB1 receptors” value at CB2 receptors is on record as “selective for targeting CB2 receptors over CB1 receptors”. Moreover, in [1], the “activity in the tetrad assay” value is reported as “little activity in the tetrad assay”. Besides, the “up-regulation of Id-2 expression” value in the test with Id-2 was “more potent than CBD at up-regulating Id-2 expression”. In the test on Id-1 [2], the “Id-1 protein expression compared with CBD” value is “downregulated Id-1 protein expression to a far greater extent than CBD”.

On to `C=C(C)[C@@H]1CCC(C)=C[C@H]1c1c(O)cc(CCCCC)cc1O` [CBD, cannabidiol], for which the “mice in which no tumor cells were observed” value in the test with U251 GBM cells [3] (15 mg/kg) was “one of the five mice”. In addition, the “decrease of tumor area” value in the test on U251 GBM cells [3] (15 mg/kg i.p. 5 days a week for 28 days) came out at 95%. In addition, the “decrease in number of Ki67-positive nuclei” value with U251 GBM cells [3] (15 mg/kg, tumors responding to treatment) is on record as 87%±9. Besides, in the test on U251 GBM cells [3] (tumors responding to treatment), the “Id-1 expression in tumors” value was “significant down-regulation of Id-1 expression”. In addition, in the test on U251 cells [4], the “invasion of U251 cells through the organotypic brain slice” value is listed as “highly effective at inhibiting invasion”. Moreover, the “invasiveness of U251 cells” value in the test on U251 cells [5] is on record as “significantly reduce the invasiveness of U251 cells”. Also, in the test with Id-1 [6] (1.5 μM), the “Id-1 protein expression in MDA-MB231, MDA-MB436, PC3, DU145, SAS, U251 and SF126” value is on record as “significant inhibition of Id-1 protein expression”. Besides, the “concentration required for significant downregulation in Id-1 expression, ACCM” value in the test with Id-1 [6] (salivary gland cancer cell line ACCM) came to 2.5 µM. In addition, the “tumor proliferation in-vivo (primary tumor volume)” value in the test on 4T1 cells is “potent inhibitor of tumor proliferation”. Moreover, in the test on 4T1 breast cancer cells, the “interaction with Paclitaxel (combination index)” value is given as “acts synergistically with Paclitaxel”. The “interaction with Temozolomide (combination index)” value in the test with U251 GBM cells [7] is “acts synergistically with Temozolomide”. Besides, the cell cycle phases entry in the test on U251 cells [8] is “increases in the population of cells in G1 and G2/M phase and decreases in cells in S phase”. For the same molecule, in the test on pERK, JNK, p38 MAPK (2.5 μM Δ^9-THC, 2.0 μM CBD, three days), the “p-ERK, higher concentrations alone” value is given as “small inhibition of p-ERK”. Besides, the pERK result with pERK, JNK, p38 MAPK (THC 1.7 μM, CBD 0.4 μM, two days) is “no changes in pERK were observed”.
